US11773051B2, “S-enantiomers of beta-hydroxybutyrate and butanediol and methods for using same” (Buck Institute for Research on Aging, priority 2017, dated 2023)

How the values were obtained:
[1] = test system: histone deacetylases (HDAC); experiment: in vitro HDAC assay, commercial assay kit Fluor de Lys Green from Enzo; assay type: biochemical; settings: comparison with literature value
Description: (§1) The activity of S-BHB and R-BHB enantiomers in inhibiting histone deacetylases was tested.
(§2) This is an in vitro HDAC assay performed using the sodium salt of S-BHB and R-BHB with a commercial assay kit, Fluor de Lys Green from Enzo.
(§3) Without being bound to a particular theory, it is believed the R-BHB might be being metabolized more rapidly than the S-BHB resulting in the diminished maximum inhibition.

[2] = test system: T1, histone deacetylases (HDAC); experiment: as above; assay type: biochemical; settings: sodium salt
T1 construct: other: sodium salt; same assay as S-BHB
Description: as §1, §2, §3

C[C@H](O)CC(=O)O [S-BHB, S-beta-hydroxybutyrate]
potency for HDAC inhibition relative to potency of R-BHB in a different, previously published assay (Shimazu et al. 2013) [1]: ≤ 2 fold | inhibition of deacetylase activity (result in words) ([2]; FIG. 2): dose-dependent inhibition | IC50 ([2]; FIG. 2, read-out: HDAC activity inhibition IC50): 7.3 mM

C[C@@H](O)CC(=O)O [R-BHB, reference compound]
maximum inhibition of HDAC activity ([2]; same assay as S-BHB, partial inhibition): about 50%
